Assays:
[1] = Solubility study in common oils, silicones and water; format: physicochemical
Description: It may be concluded that the CBD isolate was soluble in all oils and insoluble in all silicones and water. The CBD derivatives were insoluble in water and soluble in both oils and silicones (heating was required for the derivative of Example 1). […] Thus, the presence of the silicon-containing groups increased the solubility of CBD in all silicones tested.

[2] = Release of CBD from the infused silicone elastomer on water washes, TLC analysis; format: physicochemical; settings: hydrolyzed sample and water washes compared to CBD isolate
Experimental: A solution was prepared by adding 5 g of the trisiloxanyl-cannabidiol product (IV) prepared in Example 3 and 5 g of n-propylheptamethyltrisiloxane (commercially available from Gelest) to a 20 ml vial. Sample 1 was prepared by inserting apiece of silicone elastomer (1.5 cm×2.5 cm, 0.35 g, commercially available from Gelest) into a 20 ml vial containing the solution and letting the vial sit with a closed lid for 30 minutes to absorb the solution into the elastomer. Sample 2 (control) was an identical piece of silicone elastomer which was inserted into a 20 ml vial containing hemp seed oil and let sit with a closed lid for 30 minutes to absorb the hemp oil into the elastomer.
Sample 1 was washed in water three consecutive times. For each wash, the sample was placed in a vial containing 10 g of DI water and shaken for 10 seconds. The water from each wash was collected and analyzed for the presence of CBD using a basic thin-layer chromatography (TLC) method using 20% ethyl acetate in hexanes. CBD isolate was compared to a hydrolyzed sample of trisiloxanyl-cannabidiol product (IV) as well as all three washes.

C=C(C)[C@@H]1CCC(C)=C[C@H]1c1c(O)cc(CCCCC)cc1O [CBD, 2-[(1R,6R)-3-methyl-6-(1-methylethenyl)-2-cyclohexen-1-yl]-5-pentyl-1,3-benzenediol, reference compound]
Solubility in oils ([1]; all oils tested): soluble | Solubility in silicones ([1]; all silicones tested): insoluble | Solubility in water ([1]; water): insoluble

CCCCCc1cc(O)c([C@H]2C=C(C)CC[C@H]2C(C)C[Si](C)(C)O[Si](C)(C)O[Si](C)(C)O[Si](C)(C)O[Si](C)(C)CCCC)c(O)c1 (stereo partly drawn) [Example 2, 2-[(1R,6R)-3-Methyl-6-(1-methyl-2-(1-butyl-1,1,3,3,5,5,7,7-octamethyltetrasiloxy-dimethylsilyl)ethyl)-2-cyclohexen-1-yl]-5-pentyl-1,3-benzenediol]
Solubility in castor oil ([1]; castor oil, even with partial heating): only partially soluble

C=C(C)[C@@H]1CCC(C)=C[C@H]1c1c(O)cc(CCCCC)cc1O[Si](C)(O[Si](C)(C)C)O[Si](C)(C)C [Example 3, 2-[(1R,6R)-3-Methyl-6-(1-methylethenyl)-2-cyclohexen-1-yl]-5-pentyl-1-(bis(trimethylsiloxy)methylsiloxy)-3-ol-benzene]
Hydrolysis to release CBD (TLC) [2]: underwent hydrolysis to release CBD

— US10933008B1, “Silicon-based cannabidiol derivatives and compositions thereof” (Gelest Technologies, Inc., priority 2015, dated 2021)
